# Experimental data from patent US9585988B2, “Anchorage devices comprising an active pharmaceutical ingredient” (TYRX, Inc., priority 2010, dated 2017).
# What was measured:
# [1] = test system: myofibroblast formation; settings: Ajmal et al. (2003); cited from earlier work
# [2] = Tissue concentration of antibiotic after implantation; format: in vivo; settings: other: implantation
# [3] = Pocket concentration of antibiotic after implantation; format: in vivo; settings: other: implantation
# [4] = Post implant serum concentration of antibiotic; format: in vivo; settings: other: implantation
# [5] = 2 h, Left, read-out: Average Tissue concentration
# [6] = 2 h, Right, read-out: Average Tissue concentration
# [7] = 6 h, Left, read-out: Average Tissue concentration
# [8] = 6 h, Right, read-out: Average Tissue concentration
# [9] = 24 h, Left, read-out: Average Tissue concentration
# [10] = 24 h, Right, read-out: Average Tissue concentration
# [11] = after about 2 hours, range worded for embodiments, see Table 7, read-out: tissue concentration
# [12] = after about 6 hours, range worded for embodiments, see Table 7, read-out: tissue concentration
# [13] = after about 24 hours, range worded for embodiments, see Table 7, read-out: tissue concentration
# [14] = after about 2 hours, range worded for embodiments, see Table 8
# [15] = after about 6 hours, range worded for embodiments, see Table 8
# [16] = after about 2 hours, range worded for embodiments, see Table 9
# [17] = after about 6 hours, range worded for embodiments, see Table 9
# [18] = after about 24 hours, range worded for embodiments, see Table 9
"concentration at 2 h [2, 5] [ng/mL]","concentration at 2 h [2, 6] [ng/mL]","concentration at 6 h [2, 7] [ng/mL]","concentration at 6 h [2, 8] [ng/mL]","concentration at 24 h [2, 9] [ng/mL]","concentration at 24 h [2, 10] [ng/mL]","concentration at 2 h [2, 11] [ng/mL]","concentration at 6 h [2, 12] [ng/mL]","concentration at 24 h [2, 13] [ng/mL]","concentration at 2 h ([3]; 2 h, Left) [ng/mL]","concentration at 6 h ([3]; 6 h, Left) [ng/mL]","concentration at 6 h ([3]; 6 h, Right) [ng/mL]","concentration at 2 h [3, 14] [ng/mL]","concentration at 6 h [3, 15] [ng/mL]",concentration at 2 h ([4]; 2 h) [ng/mL],concentration at 6 h ([4]; 6 h) [ng/mL],concentration at 24 h ([4]; 24 h) [ng/mL],"concentration at 2 h [4, 16] [ng/mL]","concentration at 6 h [4, 17] [ng/mL]","concentration at 24 h [4, 18] [ng/mL]",Structure (SMILES),also measured
–,–,–,–,–,–,–,–,–,–,–,–,–,–,–,–,–,–,–,–,"O=S(=O)([O-])CCS.[Na+] [MESNA, sodium 2-mercaptoethane sulfonate]",myofibroblast formation [1]: diminish myofibroblast formation
700,783,2680,2600,1330,1840,650 to 800,2550 to 2750,1200 to 1900,16400,26800,207000,15000 to 17000,25000 to 210000,46.5,79.1,69.4,30 to 60,60 to 100,50 to 90,CN(C)c1ccc(O)c2c1C[C@H]1C[C@H]3[C@H](N(C)C)C(O)=C(C(N)=O)C(=O)[C@@]3(O)C(O)=C1C2=O [Minocycline],–
765,1270,2080,2210,4040,2720,600 to 1400,1900 to 2300,2600 to 4200,2020,19600,100000,1000 to 20000,15000 to 110000,27.1,20.8,44.3,15 to 45,10 to 40,30 to 60,CO[C@H]1/C=C/O[C@@]2(C)Oc3c(C)c(O)c4c(O)c(c(/C=N/N5CCN(C)CC5)c(O)c4c3C2=O)NC(=O)/C(C)=C\C=C\[C@H](C)[C@H](O)[C@@H](C)[C@@H](O)[C@@H](C)[C@H](OC(C)=O)[C@@H]1C [Rifampin],"concentration at 2 h ([3]; 2 h, Right): 16400 ng/mL"
